What was measured:
Type in all cases: in vivo, Female Sprague Dawley rats
[1] = Pharmacokinetics after single intravenous administration (3 mg/kg), plasma LC-MS/MS; details: mean ± SD n=6
Description: This study is composed of two sections; the first section involves an investigation of the interconversion pharmacokinetics of the pure compounds, and the second focuses on tissue distribution. All rats were transferred to metabolic cages and fasted overnight for at least 10 h. The animals were then randomly divided into four groups (6 rats/group) to receive a single intravenous (i.v.) administration of either 6G, 6S, zingerone, or vehicle via the lateral tail vein at a dosage of 3 mg/kg. After a 7-week washout period, the rats received 30 mg/kg of the same test compounds through a single oral (p.o.) administration. Following each administration, blood samples (300 µL) were collected in heparinized tubes from the lateral tail vein (while rats were under anesthesia with isoflurane) at specified time points: 0.083, 0.25, 0.5, 1, 1.5, 2, 3, 4, 6, 8, and 24 h after administration. An additional 1 mL of blood sample was collected from each rat at pre-dose (0 h) and post-dose (24 h) for clinical laboratory testing and safety evaluation. All heparinized blood samples were initially centrifuged at 5,000 × g, 4 °C, for 10 min. Subsequently, the plasma was carefully transferred to a cryotube as an aliquot sample and then stored at −40 °C until analysis. Urine and feces were collected during the intervals of 0–24 h and 24–48 h post-dosing, and their weights and volumes were documented. All collected urine and feces samples were stored at −40 °C until analysis. Plasma samples were processed through protein precipitation. In brief, 50 µL of plasma was mixed with 200 µL of methanol containing 50 ng/mL of IS (dihydrocapsaicin). The mixtures were vortexed and centrifuged at 14,000 × g at 4 °C for 10 min. The supernatant was filtered through a […] PVDF membrane (Chrome Tech, MN, USA) before analysis. Investigation of glucuronide conjugations followed a previously published method with some modification ([Wang et al., 2017]; [Songvut et al., 2023]). A 50 μL aliquot of plasma, urine, or feces sample was incubated at 37 °C for a minimum of 30 min with 50 μL of β-glucuronidase (3,000 U/mL) in a sodium phosphate buffer (pH 6.8). For sample extraction, 150 μL of methanol containing 50 μg/L of IS was pipetted into the pre-incubated samples. Subsequently, the mixtures were vortexed for 10 min and then centrifuged at 14,000 × g at 4 °C for 10 min. The supernatants were filtered through a […] PVDF membrane (Chrome Tech, MN, United States) and then analyzed using the validated LC-MS/MS method. Quantitative analysis was conducted using liquid chromatography-tandem mass spectrometry (LC-MS/MS) with a Nexera X2 LCMS-8060NX instrument (Shimadzu, Japan). The instrument included a CBM-40lite system controller, CTO-40C column oven, SIL-40C XR autosampler, LC-40D XR solvent pump unit, FCV-DGU-403 degasser, and 20AH2 switching valve. The LC-MS/MS system was operated with a binary pump and equipped with a triple quadrupole mass spectrometer. Pharmacokinetic parameters were assessed using PK Solutions software (version 2.0) with non-compartmental analysis. The AUC was calculated using the Linear-Log Trapezoidal Method. The maximum plasma concentration (Cmax) and time to reach maximum plasma concentration (Tmax) were taken directly from the graph.

[2] = Pharmacokinetics and oral bioavailability after single oral administration (30 mg/kg), plasma LC-MS/MS; details: for AUC(0-t) / AUC(0-∞) / Cmax (obs): mean ± SD n=6; for Tmax (obs): median [IQR]
Description: (§1) This study is composed of two sections; the first section involves an investigation of the interconversion pharmacokinetics of the pure compounds, and the second focuses on tissue distribution. All rats were transferred to metabolic cages and fasted overnight for at least 10 h. The animals were then randomly divided into four groups (6 rats/group) to receive a single intravenous (i.v.) administration of either 6G, 6S, zingerone, or vehicle via the lateral tail vein at a dosage of 3 mg/kg. After a 7-week washout period, the rats received 30 mg/kg of the same test compounds through a single oral (p.o.) administration. Following each administration, blood samples (300 µL) were collected in heparinized tubes from the lateral tail vein (while rats were under anesthesia with isoflurane) at specified time points: 0.083, 0.25, 0.5, 1, 1.5, 2, 3, 4, 6, 8, and 24 h after administration. An additional 1 mL of blood sample was collected from each rat at pre-dose (0 h) and post-dose (24 h) for clinical laboratory testing and safety evaluation. All heparinized blood samples were initially centrifuged at 5,000 × g, 4 °C, for 10 min. Subsequently, the plasma was carefully transferred to a cryotube as an aliquot sample and then stored at −40 °C until analysis. Urine and feces were collected during the intervals of 0–24 h and 24–48 h post-dosing, and their weights and volumes were documented. All collected urine and feces samples were stored at −40 °C until analysis.
Plasma samples were processed through protein precipitation. In brief, 50 µL of plasma was mixed with 200 µL of methanol containing 50 ng/mL of IS (dihydrocapsaicin). The mixtures were vortexed and centrifuged at 14,000 × g at 4 °C for 10 min. The supernatant was filtered through a […] PVDF membrane (Chrome Tech, MN, USA) before analysis.
(§2) Investigation of glucuronide conjugations followed a previously published method with some modification ([Wang et al., 2017]; [Songvut et al., 2023]). A 50 μL aliquot of plasma, urine, or feces sample was incubated at 37 °C for a minimum of 30 min with 50 μL of β-glucuronidase (3,000 U/mL) in a sodium phosphate buffer (pH 6.8). For sample extraction, 150 μL of methanol containing 50 μg/L of IS was pipetted into the pre-incubated samples. Subsequently, the mixtures were vortexed for 10 min and then centrifuged at 14,000 × g at 4 °C for 10 min. The supernatants were filtered through a […] PVDF membrane (Chrome Tech, MN, United States) and then analyzed using the validated LC-MS/MS method.
Quantitative analysis was conducted using liquid chromatography-tandem mass spectrometry (LC-MS/MS) with a Nexera X2 LCMS-8060NX instrument (Shimadzu, Japan). The instrument included a CBM-40lite system controller, CTO-40C column oven, SIL-40C XR autosampler, LC-40D XR solvent pump unit, FCV-DGU-403 degasser, and 20AH2 switching valve. The LC-MS/MS system was operated with a binary pump and equipped with a triple quadrupole mass spectrometer.
Pharmacokinetic parameters were assessed using PK Solutions software (version 2.0) with non-compartmental analysis. The AUC was calculated using the Linear-Log Trapezoidal Method. The maximum plasma concentration (Cmax) and time to reach maximum plasma concentration (Tmax) were taken directly from the graph.
(§3) Plasma concentration-time profiles were plotted using GraphPad Prism 9.3.0 (GraphPad Software, USA). The absolute oral bioavailability was calculated as follows: F = (AUC p.o./dose p.o.)/(AUC i.v./dose i.v.). The percentage recovery of each administered compound was calculated as the total amount of the drug found in urine or feces divided by the administered dose. The tissue-to-plasma concentration ratios (K p) were calculated by dividing the concentration in the tissue by the corresponding plasma concentration at the respective sampling time point.

[3] = Percent recovery in urine and feces after intravenous or oral administration; details: % of administered dose
Description: as §1
Urine samples were centrifuged, and 50 µL of urine was extracted with 200 µL of 100% methanol. The mixture was vortexed for 10 min and subsequently centrifuged at 14,000 × g at 4 °C for 10 min. Feces and organs were weighed and homogenized with methanol (50:50% w/v). The supernatants of the extracted urine, feces, and organs were also filtered through a […] PVDF membrane (Chrome Tech, MN, USA) before analysis.
as §2, §3

[4] = plasma analyte after [6]-shogaol i.v. 3 mg/kg
[5] = plasma analyte after [6]-shogaol p.o. 30 mg/kg
[6] = intravenous administration 3 mg/kg of parent compound
[7] = oral administration 30 mg/kg of parent compound
[8] = plasma analyte after zingerone i.v. 3 mg/kg
[9] = plasma analyte after zingerone p.o. 30 mg/kg
[10] = plasma analyte after [6]-gingerol i.v. 3 mg/kg
[11] = plasma analyte after [6]-gingerol p.o. 30 mg/kg

## CCCCC/C=C/C(=O)CCc1ccc(O[C@@H]2O[C@H](C(=O)O)[C@@H](O)[C@H](O)[C@H]2O)c(OC)c1 [[6]-shogaol glucuronide]
[1]; [4]
  AUC(0-t): 7,966.49 ± 3,782.71 ng-h/mL
  AUC(0-∞): 7,974.90 ± 3,786.32 ng-h/mL
[2]; [5]
  AUC(0-t): 11.88 ± 1.87 ng·h/mL
  AUC(0-∞): 11.89 ± 1.87 ng·h/mL
  Cmax (obs): 18.54 ± 6.93 ng/mL
  Tmax (obs): 0.375 [0.25] h
[3]; [6]
  % Recovery excretion, feces T 0–24 h: 0.003 ± 0.003%
  % Recovery excretion, feces T 24–48 h: 0.004 ± 0.001%
  % Recovery excretion, urine T 0–24 h: 0.153 ± 0.112%
  % Recovery excretion, urine T 24–48 h: <0.001%
[3]; [7]
  % Recovery excretion, urine T 0–24 h: 0.042 ± 0.037%
  % Recovery excretion, urine T 24–48 h: <0.001%

## COc1cc(CCC(C)=O)ccc1O[C@@H]1O[C@H](C(=O)O)[C@@H](O)[C@H](O)[C@H]1O [zingerone glucuronide]
[1]; [8]
  AUC(0-t): 12,873.76 ± 12,580.54 ng-h/mL
  AUC(0-∞): 12,903.70 ± 12,585.11 ng-h/mL
[2]; after zingerone oral administration 30 mg/kg
  AUC(0–∞) of glucuronide compared to AUC(0–∞) of unconjugated compound: 6 fold
[2]; [9]
  AUC(0-t): 5847.24 ± 134.65 ng·h/mL
  AUC(0-∞): 5847.24 ± 134.65 ng·h/mL
  Cmax (obs): 4593.37 ± 1192.68 ng/mL
  Tmax (obs): 0.25 [0.00] h
[3]; [6]
  % Recovery excretion, urine T 0–24 h: 7.396 ± 6.349%
  % Recovery excretion, urine T 24–48 h: <0.001%
[3]; [7]
  % Recovery excretion, urine T 0–24 h: 4.245 ±3.009%
  % Recovery excretion, urine T 24–48 h: 0.166 ± 0.075%

## [6]-gingerol glucuronide
[1]; [10]
  AUC(0-t): 11,087.06 ± 7,432.61 ng-h/mL
  AUC(0-∞): 11,087.09 ± 7,432.598 ng-h/mL
[2]; [11]
  AUC(0-t): 549.22 ± 272.42 ng·h/mL
  AUC(0-∞): 603.05 ± 268.67 ng·h/mL
  Cmax (obs): 539.42 ± 377.66 ng/mL
  Tmax (obs): 0.25 [0.00] h
[3]; [6]
  % Recovery excretion, urine T 0–24 h: 5.712 ± 2.768%
  % Recovery excretion, urine T 24–48 h: 0.146 ± 0.073%
[3]; [7]
  % Recovery excretion, urine T 0–24 h: 3.416 ± 1.735%
  % Recovery excretion, urine T 24–48 h: 0.036 ± 0.027%

Reference: article PMC11187260, “Unraveling the interconversion pharmacokinetics and oral bioavailability of the major ginger constituents: [6]-gingerol, [6]-shogaol, and zingerone after single-dose administration in rats” (Frontiers in Pharmacology, 2024)
